Read-outs that look alike come from different tables or passages of the source.
Experiments:
[1] = test system: HRSV; experiment: HRSV infection of differentiated BCi-NS1.1 air-liquid-interface cultures, viral load by qRT-PCR; format: cell-based, human respiratory syncytial virus (HRSV); settings: differentiated human airway epithelial cells (BCi-NS1.1), HBSS rinsing fluid and harvested cells, different doses and time points (FIG. 7)
Description: Shown are viral loads measured by qRT-PCR after HRSV infection in differentiated BCi-NS1.1 cells and treatment with lonafanib at different doses. right: viral load in HBSS rinsing fluid at different time points after infection. left: viral load of harvested cells, also at different time points after infection.
Then, the antiviral effect of lonafarnib against HRSV was shown in differentiated human airway epithelial cells. Therefore, BCi NS1.1 cells were differentiated and used in so-called “air-liquid-interface” cultures to form a pseudo-stratified lung epithelium. The cells were then infected with HRSV and treated with lonafarnib at different concentrations. The compounds were added to the medium from the basolateral pole of the cell (“liquid interface”, homologous to the blood stream) as well as administered apically (homologous to local treatment via inhalation). At different time points post infection, the cell surface (“air interface”, apical side of the cell culture, homologous to the lumen of the lung) was rinsed with HBSS to remove released viruses from the cell surface. The viral load in the HBSS rinsing fluid was determined by qRT-PCR. Also, at each time point cells were lysed and the virus load in the cell extract was determined by qRT-PCR. (FIG. 7)

[2] = cited from earlier work
[3] = test system: HRSV luciferase reporter virus; experiment: HRSV luciferase reporter virus infection assay (first and second round of infection); format: cell-based, human respiratory syncytial virus (HRSV); settings: for IC50: human respiratory syncytial virus, 24 h
Description: The dose-response relationship of lonafarnib to the HRSV reporter virus is shown on the right. Below are the IC50 and IC90 values of the first round of infection and the second round of infection, respectively, and the 50% cytotoxic concentration of lonafarnib (CC50).
The chemical structure of the farneslytransferase inhibitors lonafarnib and tipifarnib is shown above. The dose-response relationship of these agents against the HRSV luciferase reporter virus is shown below.
Efficiency of HRSV infection-inhibition by lonafarnib was investigated by a series of infection assays. In the first round of infection, the effect of lonafarnib on the virus' cell entry, which includes RNA transcription, translation and replication up to 24 hours after infection, was investigated. In the second round of infection, the cell culture supernatant was harvested and transferred to naive cells at 24 h after primary infection. In these cells, again 24 h later, the infection efficiency was determined using the luciferase reporter. In this way, the efficiency was analyzed over a longer period of time, including the spread of the virus and the re-infection of cells. The IC50 values were determined at 0.02 μM (round 1) and 0.004 μM (round 2). (FIG. 2)
In a further trial, the effect of lonafarnib compared to the farnesyltransferase inhibitor tipifarnib on HRSV-infected cell culture was then analyzed and compared.

[4] = test system: Hepatitis Delta Virus (HDV); experiment: Production of infectious Hepatitis Delta Virus in transfected Huh7-hNTCP cells; format: cell-based; settings: increasing concentrations (FIG. 8)
Method: 16 h later medium was exchanged and the cells were then cultured in absence or presence of 1% DMSO or increasing concentrations of lonafarnib or tipifarnib; (A) 10 days post transfection, translation of the HDV viral genome in the cells was confirmed by immunofluorescence and percentage of positive cells was calculated; (B) production of infectious progeny HDV was assessed by incubating serial dilutions of their supernatants on naïve Huh7-hNTCP, followed by staining for the HD-Ag—dashed lines indicates the detection threshold of the assay.

[5] = test system: clinical HRSV isolate HRSV H01 ON1; experiment: Plaque reduction test with clinical HRSV isolate; format: cell-based, human respiratory syncytial virus (HRSV); settings: clinical HRSV H01 ON1 isolate (FIG. 4)
Method: The respective concentrations of lonafarnib, tipifarnib and DMSO (control; final concentration 1%) administered to the cells are indicated on the respective well.
To confirm the antiviral effect of lonafarnib, an infection assay was performed with the clinical HRSV isolate HRSV H01 ON1. The infection efficiency was assessed in the plaque reduction test, i.e. independently of an indirect reporter gene measurement. […] (FIG. 4)

[6] = test system: HRSV-B virus; experiment: HRSV-B infection assay, number of infected cells; format: cell-based; settings: % compared to DMSO control (FIG. 9)
Description: However, […].

[7] = animals, formulated in crystalline forms; cited from earlier work
[8] = test system: HRSV virus population with resistance to a fusion inhibitor (mutations within the F protein); experiment: Infection assay with HRSV population resistant to an HRSV fusion inhibitor, intracellular FACS staining; format: cell-based, human respiratory syncytial virus (HRSV); settings: fusion inhibitor adapted virus compared with DMSO adapted virus (FIG. 6)
Method: The most significant reduction of infected cells is shown in the DMSO adapted virus population by administration of lonafarnib. Dark grey: DMSO adapted virus; light grey: fusion inhibitor adapted virus.
Further, the efficacy of lonafarnib on HRSV virus population that had previously developed resistance to an HRSV fusion inhibitor was investigated. The effectiveness of HRSV infection (number of infected cells) was determined by intracellular FACS staining. […] The HRSV virus population with resistance to a fusion inhibitor was also less susceptible to inhibition by lonafarnib.

[9] = test system: HRSV H01 ON1 isolate; experiment: Infection assay with HRSV H01 ON1 isolate, intracellular FACS staining against a virus own protein; format: cell-based, human respiratory syncytial virus (HRSV)
Method: Both graphs show data from analysing the viral infection efficiency by intracellular flow cytometry staining against a virus own protein. […] MFI: mean fluorescence intensity
Another infection assay was carried out with the HRSV H01 ON1 isolate. The analysis/quantification of the viral infection efficiency was carried out by intracellular FACS staining against a virus own protein. […] The amount of viral proteins in the infected cells was […] by the administration of lonafarnib.

NC(=O)N1CCC(CC(=O)N2CCC([C@H]3c4ncc(Br)cc4CCc4cc(Cl)cc(Br)c43)CC2)CC1 [lonafarnib]
inhibition of HRSV infection (viral load by qRT-PCR) [1]: inhibits HRSV infection
stability in solution ([2]; acidic or basic conditions): will hydrolyze
water solubility [2]: poorly water soluble
stability in solution ([2]; neutral pH): stable at neutral pH
stability in the solid state ([2]; solid state, thermal): thermally stable
suppression of HRSV infection ([3]; HRSV-infected cell culture, dose-response, comparison of lonafarnib and tipifarnib (FIG. 3)): highly effective
IC50 ([3]; read-out: IC50, first round of infection): 0.02 µM
IC50 ([3]; read-out: IC50, second round of infection): 0.004 µM
inhibition of Hepatitis Delta infections [4]: equally inhibit Hepatitis Delta infections
plaque formation (plaque size and number) [5]: reduced plaque size and number in a dose-dependent manner
inhibition of HRSV-B infection (number of infected cells) [6]: selectively and efficiently inhibits the number of infected cells
bioavailability [7]: low and variable
activity against fusion inhibitor-resistant HRSV population (number of infected cells) [8]: reduced activity
number of infected cells ([9]; intracellular FACS staining (FIG. 5 left)): reduced the number of infected cells in a dose-dependent manner
amount of viral proteins in the infected cells (MFI) ([9]; intracellular FACS staining (FIG. 5 right)): not reduced
